Measurements reported in patent US11318113B2, “Compounds for the treatment of diseases linked to mitochondrial reactive oxygen species (ROS) production” (OP2 DRUGS, priority 2015, dated 2022).

Key:
Sod2-KO mice = test: Sod2-KO mice: lifespan, heart SDH activity, liver Oil Red O staining; assay type: in vivo, mouse
Text: Mice deficient in mitochondrial Mn-Superoxide Dismutase (Sod2-KO) on a CD1-background were used. This genetic alteration leads to an adverse phenotype and the death of animals at an average of 8 days old. Mitochondrial superoxide dismutase is a free radical scavenging enzyme which transforms superoxide (highly reactive) into hydrogen peroxide (less reactive), that could then cross mitochondrial membranes and be detoxified by matrix and cytosolic anti-oxidant systems. The aim of this study was to test if AOL could rescue the Sod2-KO phenotype through its activity on IQ superoxide production.
After birth, pups were genotyped (3 day-old) and the litter size was reduced to 6 pups per cage. Animals were then treated (AOL in Kolliphor®—5 mg/kg) or not (Kolliphor® only, noted KOL below). […] Two studies were conducted on two different generations from the same parents: lifespan; and succinate dehydrogenase activity in heart (SDH) and Oil Red O staining in liver. Animals were weighed and injected (intraperitoneal) daily.
Succinate dehydrogenase activity is a marker of superoxide in the mitochondrial matrix. Thus, a lack of SOD2 is associated with a decrease of SDH activity in heart. The aim of this experiment was to test whether or not AOL could restore SDH activity in KO mice.
However, the direct link between superoxide/hydrogen peroxide production and liver lipid accumulation is not established. The aim of the study was to test the potency of AOL to prevent liver lipid accumulation in Sod2-KO mice.
Animals were injected once a day from 3 days old until their death.
In this study, animals were treated daily (5 mg/kg) from day 3 to day 5. Heart and liver were harvested at day 6.

[1] = tested on: isolated pancreatic islets from mice; test: Glucose-stimulated insulin secretion (GSIS) in isolated pancreatic islets; assay type: cell-based, mouse; conditions: AOL 10 and 20 μM, 1 hour
Protocol: Pancreatic islets were isolated using the collagenase digestion method. Briefly, pancreas was inflated with Hanks solution containing 0.33 mg/mL of collagenase (Sigma-Aldrich), 5.6 mM glucose and 1% bovine serum albumin, pH 7.35, removed and kept at 37° C. for 6-9 minutes. After tissue digestion and exocrine removal by three consecutive washes, the islets were manually collected, under a binocular magnifier. Islets were left recovering from digestion by culturing for 20-24 hours in RPMI-1640 medium containing 11 mM glucose (Invitrogen, Calif., USA) and supplemented with 2 mM glutamine, 200 IU/mL penicillin, 200 μg/mL streptomycin and 8% fetal bovine serum stripped with charcoal-dextran (Invitrogen).
For each static GSIS experiment, islets from two mice were first incubated for 2 hours at 37° C. in 3 mL Krebs-bicarbonate buffer solution (in mM): […], 2 HEPES and 3 glucose, equilibrated with a mixture of 95% O2:5% CO2, pH 7.4. […] Insulin secretion in each well was calculated as ng of insulin per islet and per hour of incubation, and then expressed as percentage of insulin secretion in 11 mM glucose vehicle group, which was considered 100%.

[2] = tested on: diet-induced obese (DIO) mice; test: Chronic ip treatment of diet-induced obese mice on high-fat diet; assay type: in vivo, mouse; conditions: for AUC of blood glucose during insulin tolerance test (ITT): vehicle 12812.50±750.35
Protocol: The aim of the study was to determine whether the compound AOL, administered daily at the doses of 5 mg/kg and 10 mg/kg for up to five weeks by intraperitoneal (ip) daily administration in diet-induced obese (DIO) mice fed with a high-fat diet (HFD), modifies food intake, body weight, adiposity and glucose metabolism.
Mice were fed ad libitum with a HFD (60% of calories from fat, mostly lard) for twelve weeks before the pharmacological study begun. Animals received AOL or its vehicle by intraperitoneal (ip) administration and were maintained on HFD for the length of the study. Food intake and body weight were measured daily and recorded for up to three consecutive weeks.
Thirty 7-weeks-old male C57/B16J mice arrived to the laboratory on 25 Feb. 2016 and underwent a first in vivo body composition analysis (Echo MRI 900, EchoMRI Systems) after 1 week of adaptation to the experimental housing room. After this first MRI analysis, animals were fed a high-fat diet (HFD) ad libitum for a period of twelve weeks. Thereafter, they underwent a second MRI analysis and were distributed into 3 experimental groups of equivalent body weight and body composition.
Once the pharmacological treatment started (day 1), food intake (FI) and body weight (BW) were measured daily before the dark phase in animals housed in their home cage. Spillage of food was checked daily. The food consumed was calculated by subtracting the food left in the hoppers from the initial pre-weighted amount. FI and BW were measured for three consecutive weeks. Afterwards animals underwent a third MRI analysis in order to observe potential effects of the treatment onto the body composition (changes in fat and lean mass), followed by a glucose tolerance test (GTT) and an insulin tolerance test (ITT). Mice received daily ip administration of AOL or its vehicle for a total length of five weeks, until they were sacrificed.
A nuclear echo magnetic resonance imaging whole-body composition analyzer (Echo MRI 900; EchoMedical Systems) was used to repeatedly assess body fat and lean mass in conscious mice.
Animals were injected ip with 1.5 g/kg of D-Glucose (Sigma-Aldrich) for the GTT or with 0.5 U/kg of insulin (Humulin, Lilly, France) for the ITT. For the GTT and the ITT, animals were fasted overnight. The tests were conducted the following morning. Blood samples were taken from the tail vein at different time points (0, 15, 30, 60, 90 and 120 minutes after the ip administration of glucose or insulin) and glucose concentration was measured using glucose sticks (OneTouch Vita, Lifescan France, Issy les Moulineaux, France).
At sacrifice, blood samples were collected, blood glucose was rapidly assessed using glucose sticks and blood samples were then centrifuged at 3000 rpm for 15 minutes. The obtained plasma was stored at −80° C. for subsequent measurement of insulin, which was carried out by performing an ELISA (kit from Mercodia, Uppsala, Sweden), according to the manufacturer's instructions.

COc1ccc(-c2cc(=S)ss2)cc1 [AOL, 5-(4-methoxyphenyl)-3H-1,2-dithiole-3-thione]
liver lipid droplets density (Oil Red O) (Sod2-KO mice; 5 mg/kg daily day 3 to day 5): decreased | liver total lipid area (Oil Red O) (Sod2-KO mice; 5 mg/kg daily day 3 to day 5): able to restore | SDH activity in heart (Sod2-KO mice; 5 mg/kg daily day 3 to day 5, not restored to WT levels): very slight increase | lifespan extension as compared to untreated mice (Sod2-KO mice; 5 mg/kg ip daily): up to 2 days | median lifespan and maximal lifespan (Sod2-KO mice; 5 mg/kg ip daily): slightly improved | lower body weight and body weight gain of KO mice (Sod2-KO mice; 5 mg/kg ip daily, day 8 to 12): tends to alleviate | GSIS increase as compared to the 11 mM glucose vehicle group [1]: 65-75% | blood glucose levels ([2]; 2-hour fasted mice, after five weeks of treatment): tended to decrease | body weight and % change of body weight ([2]; 5 and 10 mg/kg ip daily): did not have a significant effect | AUC of blood glucose during insulin tolerance test (ITT) ([2]; AOL 5 mg/kg): 15006.56±1139.69 | action of insulin on circulating glucose levels during an ITT ([2]; AOL 10 mg/kg): significantly blunted | AUC of blood glucose during insulin tolerance test (ITT) ([2]; AOL 10 mg/kg, p=0.0107 vs vehicle): 18168.33±1562.90 | lean mass ([2]; after three weeks, 5 and 10 mg/kg ip daily): did not have any effect | fat mass ([2]; after three weeks, 5 and 10 mg/kg ip daily, p=0.13): tended to reduce | body weight and food intake ([2]; chronic daily administration, data not shown): tended to decrease
